Experimental data taken from patent publication US20260325533A1, “CDK INHIBITOR COMPOUNDS” (ALEKSIA THERAPEUTICS, INC., priority 2023, published 2026).
Where two headings read alike, the source gives them in different places.

Experiments:
[1] = molecular target: CDK2/CCNE1 (Homo sapiens, UniProt P24941); assay: CDK2 homogeneous time-resolved fluorescence (HTRF) kinase assay; format: biochemical; conditions: CDK2/CCNE
Procedure, shortened: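 An HTRF format measures CDK2/CCNE1 (3 nM) phosphorylating a 4E-BP1 Thr37/46 peptide at high (1 mM) ATP. Reactions run one hour at 23 °C, then EDTA-quenched and probed with Eu-labelled phospho-specific antibody.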

[2] = molecular target: CDK1/CCNB1 (Homo sapiens, UniProt P06493); assay: CDK1 homogeneous time-resolved fluorescence (HTRF) kinase assay; format: biochemical; conditions: CDK1/CCNB
Procedure, shortened: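 Compounds, titrated 11 points in half-log steps typically from 10 μM, were incubated with enzyme for 20 min before ATP (1 mM) and ULight-labelled eIF4E-binding protein 1 peptide (50 nM) started a 60-min reaction at 23 °C. Phosphopeptide was detected by europium-antibody TR-FRET and IC50 values were derived.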

[3] = 25-250 nM marked x, read-out: CDK2/CCNE IC50 25-250 nM
[4] = >250 nM marked x, read-out: CDK1/CCNB IC50 >250 nM
[5] = >250 nM marked x, read-out: CDK2/CCNE IC50 >250 nM

Sequence of CDK1/CCNB1 (P06493 whole entry): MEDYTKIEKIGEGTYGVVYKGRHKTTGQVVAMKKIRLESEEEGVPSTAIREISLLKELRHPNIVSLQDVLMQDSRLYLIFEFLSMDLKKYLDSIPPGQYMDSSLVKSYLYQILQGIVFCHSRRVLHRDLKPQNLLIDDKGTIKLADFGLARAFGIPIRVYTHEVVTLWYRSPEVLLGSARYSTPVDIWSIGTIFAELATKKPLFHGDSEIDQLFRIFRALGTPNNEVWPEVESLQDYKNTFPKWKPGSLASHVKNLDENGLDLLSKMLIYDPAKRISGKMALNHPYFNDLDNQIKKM
Sequence of CDK1/CCNB1 (P14635 whole entry partner): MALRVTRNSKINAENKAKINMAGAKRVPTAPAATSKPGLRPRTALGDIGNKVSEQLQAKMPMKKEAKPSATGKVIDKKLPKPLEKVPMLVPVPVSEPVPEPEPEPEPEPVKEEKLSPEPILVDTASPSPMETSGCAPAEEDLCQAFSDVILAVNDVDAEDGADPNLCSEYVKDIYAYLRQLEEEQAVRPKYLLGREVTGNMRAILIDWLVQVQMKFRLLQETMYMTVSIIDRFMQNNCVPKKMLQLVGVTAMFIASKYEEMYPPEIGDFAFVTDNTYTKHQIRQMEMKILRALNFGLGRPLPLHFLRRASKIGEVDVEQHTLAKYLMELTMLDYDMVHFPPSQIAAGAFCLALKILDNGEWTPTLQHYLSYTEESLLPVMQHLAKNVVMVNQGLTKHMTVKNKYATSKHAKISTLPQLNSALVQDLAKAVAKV

SMILES | IC50 [1, 3] | IC50 [2, 4] | IC50 [1, 5] | IC50 ([1]; <25 nM, read-out: CDK2/CCNE IC50 <25 nM) | IC50 ([2]; 25-250 nM marked x, read-out: CDK1/CCNB IC50 25-250 nM)
CN1CCC(c2nccc3cnc(Nc4ccc(S(C)(=O)=O)cc4)cc23)CC1 [Ex 151, 5-(1-methylpiperidin-4-yl)-N-(4-(methylsulfonyl)phenyl)-2,6-naphthyridin-3-amine] | 25 to 250 nM | > 250 nM |  |  | 
CCN1CCC(c2nccc3cnc(Nc4ccc(S(C)(=O)=O)cc4)cc23)CC1 [Ex 152, 5-(1-ethylpiperidin-4-yl)-N-(4-(methylsulfonyl)phenyl)-2,6-naphthyridin-3-amine] | 25 to 250 nM | > 250 nM |  |  | 
CS(=O)(=O)c1ccc(Nc2cc3c(C4CCN(CC5CCCCC5)CC4)nccc3cn2)cc1 [Ex 153, 5-(1-(cyclohexylmethyl)piperidin-4-yl)-N-(4-(methylsulfonyl)phenyl)-2,6-naphthyridin-3-amine] |  | > 250 nM | > 250 nM |  | 
CC(=O)N1CCC(c2nccc3cnc(Nc4ccc(S(C)(=O)=O)cc4)cc23)CC1 [Ex 154, 1-(4-(7-((4-(methylsulfonyl)phenyl)amino)-2,6-naphthyridin-1-yl)piperidin-1-yl)ethan-1-one] |  | > 250 nM | > 250 nM |  | 
C=CC(=O)N1CCC(c2nccc3cnc(Nc4ccc(S(C)(=O)=O)cc4)cc23)CC1 [Ex 155, 1-(4-(7-((4-(methylsulfonyl)phenyl)amino)-2,6-naphthyridin-1-yl)piperidin-1-yl)prop-2-en-1-one] |  | > 250 nM | > 250 nM |  | 
C=CS(=O)(=O)c1ccc(Nc2cc3c(-c4ccc(O)cc4)nccc3cn2)cc1 [Ex 157, 4-(7-((4-(vinylsulfonyl)phenyl)amino)-2,6-naphthyridin-1-yl)phenol] | 25 to 250 nM | > 250 nM |  |  | 
Cc1cc2nn(C)cc2cc1-c1nccc2cnc(NC3CCN(S(C)(=O)=O)CC3)cc12 [Ex 159, 5-(2,6-dimethyl-2H-indazol-5-yl)-N-(1-(methylsulfonyl)piperidin-4-yl)-2,6-naphthyridin-3-amine] | 25 to 250 nM | > 250 nM |  |  | 
C=CS(=O)(=O)c1ccc(Nc2cc3c(-c4cccc(C(F)(F)F)c4)nccc3cn2)cc1 [Ex 160, 5-(3-(trifluoromethyl)phenyl)-N-(4-(vinylsulfonyl)phenyl)-2,6-naphthyridin-3-amine] | 25 to 250 nM | > 250 nM |  |  | 
C=CS(=O)(=O)c1ccc(Nc2cc3c(-c4cccc(OC(F)(F)F)c4)nccc3cn2)cc1 [Ex 161, 5-(3-(trifluoromethoxy)phenyl)-N-(4-(vinylsulfonyl)phenyl)-2,6-naphthyridin-3-amine] |  | > 250 nM | > 250 nM |  | 
CS(=O)(=O)c1ccc(Nc2cc3c(-c4ccc5c(c4)C4(CC4)C(=O)N5)nccc3cn2)cc1 [Ex 163, 5'-(7-((4-(methylsulfonyl)phenyl)amino)-2,6-naphthyridin-1-yl)spiro[cyclopropane-1,3'-indolin]-2'-one] | 25 to 250 nM | > 250 nM |  |  | 
Cc1c(-c2nccc3cnc(Nc4ccc(S(C)(=O)=O)cc4)cc23)ccc2c1cnn2C1CCOCC1 [Ex 164, 5-(4-methyl-1-(tetrahydro-2H-pyran-4-yl)-1H-indazol-5-yl)-N-(4-(methylsulfonyl)phenyl)-2,6-naphthyridin-3-amine] | 25 to 250 nM | > 250 nM |  |  | 
Cc1c(-c2nccc3cnc(Nc4ccc(S(C)(=O)=O)cc4)cc23)ccc2nn(C3CCOCC3)cc12 [Ex 165, 5-(4-methyl-2-(tetrahydro-2H-pyran-4-yl)-2H-indazol-5-yl)-N-(4-(methylsulfonyl)phenyl)-2,6-naphthyridin-3-amine] | 25 to 250 nM | > 250 nM |  |  | 
CS(=O)(=O)c1ccc(Nc2cc3c(C#C[C@H]4CC[C@H](C(N)=O)CC4)nccc3cn2)cc1 [Ex 168, (1r,4r)-4-((7-((4-(methylsulfonyl)phenyl)amino)-2,6-naphthyridin-1-yl)ethynyl)cyclohexane-1-carboxamide] |  |  |  | < 25 nM | 25 to 250 nM
CC(C)N1CCC(c2nccc3cnc(Nc4ccc(S(C)(=O)=O)cc4)cc23)CC1 [Ex 170, 5-(1-isopropylpiperidin-4-yl)-N-(4-(methylsulfonyl)phenyl)-2,6-naphthyridin-3-amine] |  | > 250 nM | > 250 nM |  | 
C=CCN1CCC(c2nccc3cnc(Nc4ccc(S(C)(=O)=O)cc4)cc23)CC1 [Ex 171, 5-(1-allylpiperidin-4-yl)-N-(4-(methylsulfonyl)phenyl)-2,6-naphthyridin-3-amine] |  | > 250 nM | > 250 nM |  | 
CS(=O)(=O)c1ccc(Nc2cc3c(C4CCN(Cc5ccccc5)CC4)nccc3cn2)cc1 [Ex 172, 5-(1-benzylpiperidin-4-yl)-N-(4-(methylsulfonyl)phenyl)-2,6-naphthyridin-3-amine] |  | > 250 nM | > 250 nM |  | 

SMILES | IC50 [1, 3] | IC50 [2, 4] | IC50 [1, 5] | IC50 ([1]; <25 nM, read-out: CDK2/CCNE IC50 <25 nM) | IC50 ([2]; 25-250 nM marked x, read-out: CDK1/CCNB IC50 25-250 nM)
COc1ccc(CN2CCC(c3nccc4cnc(Nc5ccc(S(C)(=O)=O)cc5)cc34)CC2)cc1 [Ex 173, 5-(1-(4-methoxybenzyl)piperidin-4-yl)-N-(4-(methylsulfonyl)phenyl)-2,6-naphthyridin-3-amine] |  | > 250 nM | > 250 nM |  | 
CS(=O)(=O)c1ccc(Nc2cc3c(C4CCN(Cc5cccnc5)CC4)nccc3cn2)cc1 [Ex 174, N-(4-(methylsulfonyl)phenyl)-5-(1-(pyridin-3-ylmethyl)piperidin-4-yl)-2,6-naphthyridin-3-amine] |  | > 250 nM | > 250 nM |  | 
CS(=O)(=O)c1ccc(Nc2cc3c(C4CCN(S(C)(=O)=O)CC4)nccc3cn2)cc1 [Ex 175, N-(4-(methylsulfonyl)phenyl)-5-(1-(methylsulfonyl)piperidin-4-yl)-2,6-naphthyridin-3-amine] |  | > 250 nM | > 250 nM |  | 
CC(C)S(=O)(=O)N1CCC(c2nccc3cnc(Nc4ccc(S(C)(=O)=O)cc4)cc23)CC1 [Ex 176, 5-(1-(isopropylsulfonyl)piperidin-4-yl)-N-(4-(methylsulfonyl)phenyl)-2,6-naphthyridin-3-amine] |  | > 250 nM | > 250 nM |  | 
CNC(=O)N1CCC(c2nccc3cnc(Nc4ccc(S(C)(=O)=O)cc4)cc23)CC1 [Ex 177, N-methyl-4-(7-((4-(methylsulfonyl)phenyl)amino)-2,6-naphthyridin-1-yl)piperidine-1-carboxamide] |  | > 250 nM | > 250 nM |  | 
CNC(=O)[C@H]1CC[C@H](c2nccc3cnc(Nc4ccc(S(C)(=O)=O)cc4)cc32)CC1 [Ex 178, (1r,4r)-N-methyl-4-(7-((4-(methylsulfonyl)phenyl)amino)-2,6-naphthyridin-1-yl)cyclohexane-1-carboxamide] | 25 to 250 nM | > 250 nM |  |  | 
CCNC(=O)[C@H]1CC[C@H](c2nccc3cnc(Nc4ccc(S(C)(=O)=O)cc4)cc32)CC1 [Ex 179, (1r,4r)-N-ethyl-4-(7-((4-(methylsulfonyl)phenyl)amino)-2,6-naphthyridin-1-yl)cyclohexane-1-carboxamide] | 25 to 250 nM | > 250 nM |  |  | 
CCCNC(=O)[C@H]1CC[C@H](c2nccc3cnc(Nc4ccc(S(C)(=O)=O)cc4)cc32)CC1 [Ex 180, (1r,4r)-4-(7-((4-(methylsulfonyl)phenyl)amino)-2,6-naphthyridin-1-yl)-N-propylcyclohexane-1-carboxamide] | 25 to 250 nM | > 250 nM |  |  | 
CC(C)NC(=O)[C@H]1CC[C@H](c2nccc3cnc(Nc4ccc(S(C)(=O)=O)cc4)cc32)CC1 [Ex 181, (1r,4r)-N-isopropyl-4-(7-((4-(methylsulfonyl)phenyl)amino)-2,6-naphthyridin-1-yl)cyclohexane-1-carboxamide] |  | > 250 nM | > 250 nM |  | 
Cc1c(-c2nccc3cnc(Nc4ccc(S(C)(=O)=O)cc4)cc23)ccc2c1cnn2C1CCNCC1 [Ex 182, 5-(4-methyl-1-(piperidin-4-yl)-1H-indazol-5-yl)-N-(4-(methylsulfonyl)phenyl)-2,6-naphthyridin-3-amine] | 25 to 250 nM | > 250 nM |  |  | 
CS(=O)(=O)c1ccc(Nc2cc3c(N4CCCCC4)nc(C=O)cc3cn2)cc1 [Ex 186, 7-((4-(methylsulfonyl)phenyl)amino)-1-(piperidin-1-yl)-2,6-naphthyridine-3-carbaldehyde] | 25 to 250 nM | > 250 nM |  |  | 
C=CS(=O)(=O)c1ccc(Nc2cc3c(N4CC(C#N)C4)nccc3cn2)cc1 [Ex 188, 1-(7-((4-(vinylsulfonyl)phenyl)amino)-2,6-naphthyridin-1-yl)azetidine-3-carbonitrile] | 25 to 250 nM | > 250 nM |  |  | 
Cc1c(-c2nccc3cnc(Nc4ccc(S(C)(=O)=O)cc4)cc23)ccc2c1cnn2CCC#N [Ex 194, 3-(4-methyl-5-(7-((4-(methylsulfonyl)phenyl)amino)-2,6-naphthyridin-1-yl)-1H-indazol-1-yl)propanenitrile] | 25 to 250 nM | > 250 nM |  |  | 
Cc1c(-c2nccc3cnc(Nc4ccc(S(C)(=O)=O)cc4)cc23)ccc2nn(CC3CNC3)cc12 [Ex 196, 5-(2-(azetidin-3-ylmethyl)-4-methyl-2H-indazol-5-yl)-N-(4-(methylsulfonyl)phenyl)-2,6-naphthyridin-3-amine] | 25 to 250 nM | > 250 nM |  |  | 
Cc1c(-c2nccc3cnc(Nc4ccc(S(C)(=O)=O)cc4)cc23)ccc2nn(CCC#N)cc12 [Ex 197, 3-(4-methyl-5-(7-((4-(methylsulfonyl)phenyl)amino)-2,6-naphthyridin-1-yl)-2H-indazol-2-yl)propanenitrile] | 25 to 250 nM | > 250 nM |  |  | 
